# Source: US20210261512A1, “NOVEL COMPOUNDS” (INFLAZOME LIMITED, priority 2018, published 2021)
# Target: NLRP3 (Homo sapiens, UniProt Q96P20)
# Assay: THP-1 cells pyroptosis assay
# Type: cell-based
# Set-up: Seed THP-1 cells (25,000 cells/well) containing 1.0 μg/ml LPS; host or cells: THP-1
# Settings: LPS 1.0 μg/ml, nigericin 5 μM, resazurin readout, 10 μM top dose (Example 2: top dose of 30 μM)
# Protocol: THP-1 cells (ATCC #TIB-202) were grown in RPMI containing L-glutamine (Gibco #11835) supplemented with imM sodium pyruvate (Sigma #S8636) and penicillin (100 units/ml)/streptomycin (0.1 mg/ml) (Sigma #P4333) in 10% Fetal Bovine Serum (FBS) (Sigma #F0804). The cells were routinely passaged and grown to confluency (˜10^6 cells/ml). On the day of the experiment, THP-1 cells were harvested and resuspended into RPMI medium (without FBS). The cells were then counted and viability (>90%) checked by Trypan blue (Sigma #T8154). Appropriate dilutions were made to give a concentration of 625,000 cells/ml. To this diluted cell solution was added LPS (Sigma #L4524) to give a 1 μg/ml Final Assay Concentration (FAC). 40 μl of the final preparation was aliquoted into each well of a 96-well plate. The plate thus prepared was used for compound screening.
# The following method step-by-step assay was followed for compound screening. • 1. Seed THP-1 cells (25,000 cells/well) containing 1.0 μg/ml LPS in 40 μl of RPMI medium (without FBS) in 96-well, black walled, clear bottom cell culture plates coated with poly-D-lysine (VWR #734-0317) • 2. Add 5 μl compound (8 points four-fold dilution or 8 points half-log dilution, with 10 μM top dose, unless stated otherwise) or vehicle (DMSO 0.1% FAC) to the appropriate wells • 3. Incubate for 3 hrs at 37° C. and 5% CO2 • 4. Add 5 μl nigericin (Sigma #N7143) (FAC 5 μM) to all wells • 5. Incubate for 1 hr at 37° C. and 5% CO2 • 6. At the end of the incubation period, spin plates at 300×g for 3 mins and remove supernatant • 7. Then add 50 μl of resazurin (Sigma #R^7017) (FAC 100 μM resazurin in RPMI medium without FBS) and incubate plates for a further 1-2 hrs at 37° C. and 5% CO2 • 8. Plates were read in an Envision reader at Ex 560 nm and Em 590 nm • 9. IC50 data is fitted to a non-linear regression equation (log inhibitor vs response-variable slope 4-parameters)
# NLRP3, sequence (Q96P20 whole entry): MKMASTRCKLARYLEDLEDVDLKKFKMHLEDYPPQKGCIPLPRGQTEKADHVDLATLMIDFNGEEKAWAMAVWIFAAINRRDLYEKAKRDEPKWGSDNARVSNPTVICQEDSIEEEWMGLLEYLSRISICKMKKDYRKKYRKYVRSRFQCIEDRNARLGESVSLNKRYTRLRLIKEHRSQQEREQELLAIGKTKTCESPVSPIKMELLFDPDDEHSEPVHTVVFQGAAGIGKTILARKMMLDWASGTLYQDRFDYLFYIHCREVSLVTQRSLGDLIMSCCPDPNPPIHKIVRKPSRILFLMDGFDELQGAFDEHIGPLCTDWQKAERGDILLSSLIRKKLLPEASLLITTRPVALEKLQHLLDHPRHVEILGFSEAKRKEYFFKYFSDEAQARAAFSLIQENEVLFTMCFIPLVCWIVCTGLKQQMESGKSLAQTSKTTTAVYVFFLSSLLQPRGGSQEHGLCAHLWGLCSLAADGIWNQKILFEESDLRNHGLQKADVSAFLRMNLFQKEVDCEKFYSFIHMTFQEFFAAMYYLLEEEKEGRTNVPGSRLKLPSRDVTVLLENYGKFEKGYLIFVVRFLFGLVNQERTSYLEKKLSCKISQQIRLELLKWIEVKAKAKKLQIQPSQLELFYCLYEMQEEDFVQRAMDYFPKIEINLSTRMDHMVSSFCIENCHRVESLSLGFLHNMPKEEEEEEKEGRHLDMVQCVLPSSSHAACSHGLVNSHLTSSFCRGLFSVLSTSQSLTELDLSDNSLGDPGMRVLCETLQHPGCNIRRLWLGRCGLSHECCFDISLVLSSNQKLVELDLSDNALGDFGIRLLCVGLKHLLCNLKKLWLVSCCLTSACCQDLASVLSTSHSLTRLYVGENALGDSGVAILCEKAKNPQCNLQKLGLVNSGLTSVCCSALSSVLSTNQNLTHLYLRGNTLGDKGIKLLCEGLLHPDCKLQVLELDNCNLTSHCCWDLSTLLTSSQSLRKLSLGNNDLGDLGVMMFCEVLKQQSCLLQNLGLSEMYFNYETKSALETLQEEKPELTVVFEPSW
row,Structure (SMILES),IC50 [µM]
1,"CC(c1cc(S(=O)(=O)c2nnc(Nc3c4c(cc5c3CCC5)CCC4)[nH]2)nn1C(C)C)N(C)C (centres unmarked) [Example 8, 5-((5-(1-(dimethylamino)ethyl)-1-isopropyl-1H-pyrazol-3-yl)sulfonyl)-N-(1,2,3,5,6,7-hexahydro-s-indacen-4-yl)-4H-1,2,4-triazol-3-amine]",≤ 1
2,"COC1(c2cc(S(=O)(=O)c3nnc(Nc4c5c(cc6c4CCC6)CCC5)[nH]3)nn2C(C)C)COC1 [Example 14, N-(1,2,3,5,6,7-hexahydro-s-indacen-4-yl)-5-((1-isopropyl-5-(3-methoxyoxetan-3-yl)-1H-pyrazol-3-yl)sulfonyl)-4H-1,2,4-triazol-3-amine]",≤ 5
3,"COC1(c2cc(S(=O)(=O)c3nnc(Nc4c5c(cc6c4CCC6)CCC5)[nH]3)nn2C2CC2)COC1 [Example 16, 5-((1-cyclopropyl-5-(3-methoxyoxetan-3-yl)-1H-pyrazol-3-yl)sulfonyl)-N-(1,2,3,5,6,7-hexahydro-s-indacen-4-yl)-4H-1,2,4-triazol-3-amine]",≤ 5
4,"O=S(=O)(c1nnc(Nc2c3c(cc4c2CCC4)CCC3)[nH]1)C1CNC1 [Example 21, 5-(azetidin-3-ylsulfonyl)-N-(1,2,3,5,6,7-hexahydro-s-indacen-4-yl)-4H-1,2,4-triazol-3-amine]",≤ 10
5,"COC1(c2cc([S+]([O-])c3nnc(Nc4c5c(cc6c4CCC6)CCC5)[nH]3)nn2C(C)C)COC1 (centres unmarked) [Example 25, N-(1,2,3,5,6,7-hexahydro-s-indacen-4-yl)-5-((1-isopropyl-5-(3-methoxyoxetan-3-yl)-1H-pyrazol-3-yl)sulfinyl)-4H-1,2,4-triazol-3-amine]",≤ 10
6,"COC1(c2cc([S+]([O-])c3nnc(Nc4c5c(cc6c4CCC6)CCC5)[nH]3)nn2C)COC1 (centres unmarked) [Example 26, N-(1,2,3,5,6,7-hexahydro-s-indacen-4-yl)-5-((5-(3-methoxyoxetan-3-yl)-1-methyl-1H-pyrazol-3-yl)sulfinyl)-4H-1,2,4-triazol-3-amine]",≤ 10
7,"CC(C)c1cc(F)cc(C(C)C)c1Cc1nnc(S(=O)(=O)Cc2ccc(F)cc2)[nH]1 [Example 28, 3-(4-fluoro-2,6-diisopropylbenzyl)-5-((4-fluorobenzyl)sulfonyl)-4H-1,2,4-triazole]",≤ 10
8,"CC(C)n1ccc(S(=O)(=O)c2nnc(Cc3c4c(cc5c3CCC5)CCC4)[nH]2)n1 [Example 30, 3-((1,2,3,5,6,7-hexahydro-s-indacen-4-yl)methyl)-5-((1-isopropyl-1H-pyrazol-3-yl)sulfonyl)-4H-1,2,4-triazole]",≤ 10
9,"COc1cc(-c2ccc3c(c2Cc2nnc(S(=O)(=O)c4ccn(C(C)C)n4)[nH]2)CCC3)ccn1 [Example 32, 4-(4-((5-((1-isopropyl-H-pyrazol-3-yl)sulfonyl)-4H-1,2,4-triazol-3-yl)methyl)-2,3-dihydro-1H-inden-5-yl)-2-methoxypyridine]",≤ 5
10,"CC(C)c1cc(F)cc(-c2cccnc2)c1Nc1nnc(S(=O)(=O)c2ccn(C(C)C)n2)[nH]1 [Example 39, N-(4-fluoro-2-isopropyl-6-(pyridin-3-yl)phenyl)-5-((1-isopropyl-1H-pyrazol-3-yl)sulfonyl)-4H-1,2,4-triazol-3-amine]",≤ 10
11,"O=S(=O)(c1ccccc1)c1nc(Nc2c(-c3cccnc3)cc(F)c3c2CCC3)n[nH]1 [Example 41, N-(7-fluoro-5-(pyridin-3-yl)-2,3-dihydro-1H-inden-4-yl)-5-(phenylsulfonyl)-1H-1,2,4-triazol-3-amine]",≤ 10
12,"CC(C)c1cc(F)cc(C(C)C)c1Nc1nnc(S(=O)(=O)c2ccccc2)[nH]1 [Example 42, N-(4-fluoro-2,6-diisopropylphenyl)-3-(phenylsulfonyl)-1H-1,2,4-triazol-5-amine]",≤ 10
13,"O=S(=O)(CCCO)c1nnc(Nc2c3c(cc4c2CCC4)CCC3)[nH]1 [Example 47, 3-((5-((1,2,3,5,6,7-hexahydro-s-indacen-4-yl)amino)-4H-1,2,4-triazol-3-yl)sulfonyl)propan-1-ol]",≤ 5
14,"O=S(=O)(CCCN1CCOCC1)c1nnc(Nc2c3c(cc4c2CCC4)CCC3)[nH]1 [Example 50, N-(1,2,3,5,6,7-hexahydro-s-indacen-4-yl)-5-((3-morpholinopropyl)sulfonyl)-4H-1,2,4-triazol-3-amine]",≤ 5
15,"CN1CCN(CCCS(=O)(=O)c2nnc(Nc3c4c(cc5c3CCC5)CCC4)[nH]2)CC1 [Example 51, N-(1,2,3,5,6,7-hexahydro-s-indacen-4-yl)-5-((3-(4-methylpiperazin-1-yl)propyl)sulfonyl)-4H-1,2,4-triazol-3-amine]",≤ 5
16,"CN(C)CCN(C)CCCS(=O)(=O)c1nnc(Nc2c3c(cc4c2CCC4)CCC3)[nH]1 [Example 52, N^1-(3-((5-((1,2,3,5,6,7-hexahydro-s-indacen-4-yl)amino)-4H-1,2,4-triazol-3-yl)sulfonyl)propyl)-N^1,N^2,N^2-trimethylethane-1,2-diamine]",≤ 5
17,"CN1CCC(CN(C)CCCS(=O)(=O)c2nnc(Nc3c4c(cc5c3CCC5)CCC4)[nH]2)CC1 [Example 53, N-(1,2,3,5,6,7-hexahydro-s-indacen-4-yl)-5-((3-(methyl((1-methylpiperidin-4-yl)methyl)amino)propyl)sulfonyl)-4H-1,2,4-triazol-3-amine]",≤ 5
18,"CCNCCCS(=O)(=O)c1nnc(Nc2c3c(cc4c2CCC4)CCC3)[nH]1 [Example 55, 5-((3-(ethylamino)propyl)sulfonyl)-N-(1,2,3,5,6,7-hexahydro-s-indacen-4-yl)-4H-1,2,4-triazol-3-amine]",≤ 5
19,"O=S(=O)(CCCNC1CC1)c1nnc(Nc2c3c(cc4c2CCC4)CCC3)[nH]1 [Example 56, 5-((3-(cyclopropylamino)propyl)sulfonyl)-N-(1,2,3,5,6,7-hexahydro-s-indacen-4-yl)-4H-1,2,4-triazol-3-amine]",≤ 5
20,"O=S(=O)(CC1CNCCO1)c1nnc(Nc2c3c(cc4c2CCC4)CCC3)[nH]1 (centres unmarked) [Example 57, N-(1,2,3,5,6,7-hexahydro-s-indacen-4-yl)-3-((morpholin-2-ylmethyl)sulfonyl)-1H-1,2,4-triazol-5-amine]",≤ 10
21,"CN1CCCC(CS(=O)(=O)c2nnc(Nc3c4c(cc5c3CCC5)CCC4)[nH]2)C1 (centres unmarked) [Example 58, N-(1,2,3,5,6,7-hexahydro-s-indacen-4-yl)-3-(((1-methylpiperidin-3-yl)methyl)sulfonyl)-1H-1,2,4-triazol-5-amine]",≤ 5
22,"CN1CCCC1CS(=O)(=O)c1nnc(Nc2c3c(cc4c2CCC4)CCC3)[nH]1 (centres unmarked) [Example 61, N-(1,2,3,5,6,7-hexahydro-s-indacen-4-yl)-3-(((1-methylpyrrolidin-2-yl)methyl)sulfonyl)-1H-1,2,4-triazol-5-amine]",≤ 10
23,"O=S(=O)(CC1CCCN1)c1nnc(Nc2c3c(cc4c2CCC4)CCC3)[nH]1 (centres unmarked) [Example 62, N-(1,2,3,5,6,7-hexahydro-s-indacen-4-yl)-3-((pyrrolidin-2-ylmethyl)sulfonyl)-1H-1,2,4-triazol-5-amine]",≤ 10
24,"O=S(=O)(CCc1ccccn1)c1nnc(Nc2c3c(cc4c2CCC4)CCC3)[nH]1 [Example 63, N-(1,2,3,5,6,7-hexahydro-s-indacen-4-yl)-3-((2-(pyridin-2-yl)ethyl)sulfonyl)-1H-1,2,4-triazol-5-amine]",≤ 1
25,"O=S(=O)(c1nnc(Nc2c3c(cc4c2CCC4)CCC3)[nH]1)C1CCCC1 [Example 64, 3-(Cyclopentylsulfonyl)-N-(1,2,3,5,6,7-hexahydro-s-indacen-4-yl)-1H-1,2,4-triazol-5-amine]",≤ 5
26,"COCCCS(=O)(=O)c1nnc(Nc2c3c(cc4c2CCC4)CCC3)[nH]1 [Example 65, N-(1,2,3,5,6,7-hexahydro-s-indacen-4-yl)-3-((3-methoxypropyl)sulfonyl)-1H-1,2,4-triazol-5-amine]",≤ 10
27,"O=S(=O)(CC1CCOC1)c1nnc(Nc2c3c(cc4c2CCC4)CCC3)[nH]1 (centres unmarked) [Example 66, N-(1,2,3,5,6,7-hexahydro-s-indacen-4-yl)-3-(((tetrahydrofuran-3-yl)methyl)sulfonyl)-1H-1,2,4-triazol-5-amine]",≤ 10
28,"O=S(=O)(CC1CCCO1)c1nnc(Nc2c3c(cc4c2CCC4)CCC3)[nH]1 (centres unmarked) [Example 67, N-(1,2,3,5,6,7-hexahydro-s-indacen-4-yl)-3-(((tetrahydrofuran-2-yl)methyl)sulfonyl)-1H-1,2,4-triazol-5-amine]",≤ 10
29,"CNC(=O)CS(=O)(=O)c1nnc(Nc2c3c(cc4c2CCC4)CCC3)[nH]1 [Example 68, 2-((5-((1,2,3,5,6,7-hexahydro-s-indacen-4-yl)amino)-4H-1,2,4-triazol-3-yl)sulfonyl)-N-methylacetamide]",≤ 5
